Broadly, the Km is the substrate concentration at which the rate is half of its maximum.

The text below walks through data of paper PMC6200933, “Identification of a Kdn biosynthesis pathway in the haptophyte Prymnesium parvum suggests widespread sialic acid biosynthesis among microalgae” (The Journal of Biological Chemistry, 2018).

Like-named read-outs stand apart in the source and are kept apart here.

Experiment [1] deals with T1, B. thetaiotaomicron VPI-5482 Kdn-9-P phosphatase (Bacteroides thetaiotaomicron, UniProt Q8A712).
T1 construct: gene BT_1713
T1 sequence (Q8A712 whole entry, change not shown): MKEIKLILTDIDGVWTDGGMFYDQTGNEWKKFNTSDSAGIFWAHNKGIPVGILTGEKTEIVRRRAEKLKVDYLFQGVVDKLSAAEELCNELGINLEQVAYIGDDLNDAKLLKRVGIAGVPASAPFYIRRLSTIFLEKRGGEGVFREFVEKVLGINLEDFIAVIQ
In words: […] NMR coupled assay, Kdn-9-P generated in situ by P. parvum Kdn-9-P synthetase. It is filed as biochemical. To be noted: coupled with Kdn-9-P synthetase, 10 mM PEP, 8 mM Man-6-P, 2 mM MgCl2, 50 mM HEPES pD 7.5, 1 h.

For experiment [2], the system named is T2, Kdn-9-P synthetase (CAMPEP_0191217894).
T2 construct: no truncation stated
Description: BioMol Green colorimetric phosphate-release assay, Michaelis-Menten. The format is biochemical, Prymnesium parvum. The settings on record: 50 mM HEPES pH 7.5, 2 mM MgCl2, 25 °C.

For `O=C(O)C1(O)C[C@H](O)[C@@H](O)[C@H]([C@H](O)[C@H](O)COP(=O)(O)O)O1` (stereo partly drawn) [Kdn-9-P], in experiment [1], the “31P NMR coupled assay, Kdn-9-P generated in situ by P. parvum Kdn-9-P synthetase” value is “is accepted by B. thetaiotaomicron VPI-5482 Kdn-9-P phosphatase”. For the molecule `O=P(O)(O)OC[C@H]1OC(O)[C@@H](O)[C@@H](O)[C@@H]1O` (stereo partly drawn) [Man-6-P], in experiment [2] (100 μM PEP, read-out: (Man-6-P)Km), the Michaelis-Menten constant (Km) came out at 63.6 ± 10.5 µM. For the molecule `C=C(OP(=O)(O)O)C(=O)O` [PEP], the Michaelis constant (Km) in experiment [2] (100 μM Man-6-P, read-out: (PEP)Km) turned out to be 18.3 ± 1.8 µM.
